From patent EP4810052A2, “HCRHR2 SELECTIVE POLYPEPTIDES” (Gubra A/S, priority 2023, dated 2026)
Starred links: 1 amine or outer side, 2 acyl side, 3 side chain; linkers in the order of their positions; H or OH if unused. Residues, ends and D or L forms follow the SMILES beside them. Groups on a side chain read outwards from the residue. *: point of attachment. C20 diacid = O=C(O)CCCCCCCCCCCCCCCCCCC(=O)*; γGlu = O=C(O)[C@H](CCC(=O)[*:2])N[*:1]; AEEA = NCCOCCOCC(=O)O

Test: Myocardial ischemia (LAD ligation) model in rats
Assay type: in vivo
Conditions: MI rats; for Heart rate / Mean blood pressure: anesthetized, prior to termination
From the text: Wistar male rats were obtained from JanVier (Janvier Labs, France) at 6 weeks of age. The animals were pair-housed. During the study, animals had free access to food (RM1, SDS Dietex) and drinking water ad libitum.
Myocardial infarction (MI) was induced by chronic left anterior descending coronary artery (LAD) ligation performed at day zero. Sham operated animals were subjected to the same protocol; after the left lateral thoracotomy exposing the heart, the rib cage was closed without passing the suture thread around LAD.
Treatments started at 1-month post-MI, in order to assess the potential beneficial effect of the candidate compound to prevent the progression of the pathology.
Rats underwent transthoracic echocardiographic (ECG) examination in order to assess cardiac morphology and function in a noninvasively way. Echocardiography was performed by using a digital ultrasound system (Vivid S60, GE Medical Systems) equipped with a 12 MHz phased-array and an 18 MHz linear-array transducer. Standard B-mode (Brightness-mode) and M-mode (Motion-mode) images of the heart were obtained in the two-dimensional (2D) parasternal long axis view (PSLA). LV parameters were measured and calculated as the mean of 3 consecutive cardiac cycles by a single blinded trained operator.
A total of four ECG exams were performed for all the animals. The first examination took place 5-7 days after surgery and was used as a control of the surgery. The second ECG was performed 1 month after LAD ligation. Based on the second ECG, MI rats included were randomized in […] homogeneous groups based on the left ventricular internal diameter in diastole (LVIDd), telediastolic (TeleD) volume, ejection fraction (EF) and fractional shortening (FS): Group 1 (Sham): n=10, group 2 (MI/Vehicle): n=19, group 3 (MI/Atenolol-Lisinopril-Spironolactone (A+L+S) 1-1-10 mg/kg): n=19, group 4 (MI/test peptide 30 nmol/kg): n=19 and group 5 (MI/test peptide 100 nmol/kg): n=19. Vehicle and test peptide were administrated daily SC and A+L+S were dosed through drinking water. The third and fourth ECG were done 2 and 3 months after surgery, and were used to assess the cardiac remodelling and function following MI. At the fourth ECG isovolumic relaxation time (IVRT) and cardiac output (CO) were also assessed by Doppler-echocardiography.
Prior to termination, hemodynamic measurements were performed under anaesthesia using a fluid-filled catheter (BLPR and TBM4m, World Precision Instrument). At termination, left soleus was dissected and weighed.
Statistical analyses were performed with the Graphpad 9 software. If values were normally distributed, a parametric analysis was performed. If samples were drawn from non-normal populations, a non-parametric analysis was performed. First, differences were assessed between Sham and MI/Vehicle using a t-test. Then, the treated MI groups were compared to MI/Vehicle using a one-way ANOVA followed by the appropriate post-hoc test.

[1] = 2 months of treatment, 30 nmol/kg, ± SEM
[2] = 2 months of treatment, 100 nmol/kg, ± SEM
[3] = 2 months of treatment, compared to MI/Vehicle

## CC[C@H](C)[C@H](N)C(=O)N[C@H](C(=O)N[C@@H](CC(C)C)C(=O)N[C@@H](CO)C(=O)N[C@@H](CC(C)C)C(=O)N[C@@H](CC(=O)O)C(=O)N[C@H](C(=O)N1CCC[C@H]1C(=O)N[C@H](C(=O)NCC(=O)N[C@@H](CC(C)C)C(=O)N[C@@H](CC(C)C)C(=O)N[C@@H](CCC(N)=O)C(=O)N[C@H](C(=O)N[C@@H](CC(C)C)C(=O)N[C@@H](CC(C)C)C(=O)N[C@@H](CCC(=O)O)C(=O)N[C@@H](CCC(N)=O)C(=O)N[C@@H](C)C(=O)N[C@@H](CCCNC(=N)N)C(=O)N[C@@H](C)C(=O)N[C@@H](CCCNC(=N)N)C(=O)N[C@@H](C)C(=O)N[C@@H](C)C(=O)N[C@@H](CCCNC(=N)N)C(=O)N[C@@H](CCC(=O)O)C(=O)N[C@@H](CCC(N)=O)C(=O)N[C@@H](C)C(=O)N[C@@H](CCCCNC(=O)COCCOCCNC(=O)COCCOCCNC(=O)CC[C@H](NC(=O)CC[C@H](NC(=O)CCCCCCCCCCCCCCCCCCC(=O)O)C(=O)O)C(=O)O)C(=O)N[C@H](C(=O)N[C@@H](CC(N)=O)C(=O)N[C@@H](C)C(=O)N[C@@H](CCC(=O)O)C(=O)N[C@H](C(=O)N[C@@H](CC(C)C)C(=O)N[C@@H](C)C(=O)N[C@@H](CCC(=O)O)C(=O)N[C@H](C(N)=O)C(C)C)[C@@H](C)CC)[C@@H](C)O)[C@@H](C)CC)[C@@H](C)CC)C(C)C)C(C)C [SEQ ID NO: 3] (H-IVLSLDVPIGLLQILLEQARARAAREQAK([AEEA-AEEA-γGlu-γGlu-C20 diacid])TNAEILAEV-NH2)
30 nmol/kg, ± SEM
  Body weight at termination: 550.1 ± 10.6 g
  Left soleus mass: 274.9 ± 9.9 mg
100 nmol/kg, ± SEM
  Body weight at termination: 551.6 ± 6.7 g
  Left soleus mass: 275.2 ± 6.8 mg
[1]
  CO: 129.0 ± 5.1 mL/min
  EF B-mode: 45.52 ± 1.2 %
  EF M-mode: 46.42 ± 1.2 %
  FS: 20.63 ± 0.5 %
  IVRT: 21.81 ± 0.5 ms
  LVIDd: 10.86 ± 0.2 mm
  LVIDs: 8.63 ± 0.2 mm
  LVPWd: 1.84 ± 0.04 mm
  LVPWs: 2.94 ± 0.05 mm
  SV: 0.41 ± 0.01 mL
[2]
  CO: 125.4 ± 3.8 mL/min
  EF B-mode: 45.55 ± 0.7 %
  EF M-mode: 46.22 ± 0.7 %
  FS: 20.46 ± 0.4 %
  IVRT: 20.87 ± 0.3 ms
  LVIDd: 10.94 ± 0.1 mm
  LVIDs: 8.71 ± 0.1 mm
  LVPWd: 1.63 ± 0.1 mm
  LVPWs: 2.73 ± 0.05 mm
  SV: 0.40 ± 0.02 mL
[3]
  cardiac output: significant improvements
  ejection fraction: significant improvements
  fractional shortening: significant improvements
  stroke volume: significant improvements
30 nmol/kg
  Heart rate: 348.8 ± 6.7 bpm
  Mean blood pressure: 109.9 ± 4.0 mmHg
100 nmol/kg
  Heart rate: 353.2 ± 9.1 bpm
  Mean blood pressure: 112.6 ± 4.3 mmHg
At termination
  muscle mass: significant increase
Compared to MI-Vehicle
  Body weight at termination: weighed significantly more
